Test results taken from patent EP0187057A1, “2-Phenyl-isopropyl-allophanate, preparation and pharmaceutical application” (priority 1984, dated 1986).
“Also recorded” adds a separate entry of the source.

Legend:
[1] = tested on: myoclonies palpébrales provoquées par l'infusion veineuse de pentétrazol; experiment: Intravenous pentetrazol infusion producing palpebral myoclonus (threshold seizures); assay type: in vivo, lapin; settings: reference anticonvulsants, essais croisés, unit not given
Source text: (§1) Propriétés anticonvulsivantes : • On a effectué, pour déterminer ces propriétés anticonvulsivantes, des expérimentations sur le SCS 289 en procédant à des essais de protection : • - chez le lapin soumis à une transélectrification cranienne génératrice de crises épileptiformes de type "grand mal" ou recevant une infusion veineuse de pentétrazol provoquant l'apparition de myoclonies palpébrales; • - chez la souris recevant, par voie sous-cutanée des doses croissantes de pentétrazol entraînant convulsions et mort ou soumise à une transélectrification transcranienne à basse fréquence génératrice de crises psychomotrices.
Les résultats quant à la protection contre les crises pentétrazoliques liminaires génératrices de myaclonies palpébrales figurent dans les tableaux ci-après.
L'administration préalable de SCS 289 retarde l'apparition des myoclonies palpébrales provoquées par l'infusion veineuse de pentétrazol.
Une expérimentation similaire pratiquée en essais croisés a donné les résultats suivants pour divers anticonvulsivants de référence : […]

crises psychomotrices = experiment: Psychomotor seizures induced by low-frequency transcranial electrical stimulation; assay type: in vivo, souris; settings: for Pourcentage de souris protégées une heure après traitement: groupes de 20 souris; for ED50: Mus musculus, po, read-out: DE50 capable de protéger 50 % des animaux contre les crises psychomotrices
Source text: as §1
On a également recherché si le SCS 289 était susceptible de protéger la souris contre le choc psychomoteur induit par une stimulation transcranienne à basse fréquence qui provoque, chez l'animal, un bref comportement de désorientation rappelant les attaques psychomotrices de l'homme.
Vis-à-vis des crises psychomotrices provoquées chez la souris par une stimulation électrique transcranienne à basse fréquence, le SCS 35 apparait plus actif que le SCS 289 : […]

crises pentétrazoliques = experiment: Convulsant and lethal effects of subcutaneous pentetrazol (125 mg/kg); assay type: in vivo, souris
Source text: as §1
Pour déceler une synergie d'action antagoniste vis-à-vis des effets convulsivants et létaux du pentétrazol injecté par voie sous-cutanée chez la souris à la dose de 125 mg/kg, on a déterminé avec plus de précision la DE50 du SCS 289 et on a recherché si l'association avec le SCS 35 apportait un surcroit appréciable d'activité.
On n'a retenu comme significative que la protection à l'égard des effets létaux observés sur 24 heures.

[2] = tested on: crises épileptiformes consécutives à l'électrochoc; experiment: Maximal electroshock producing epileptiform 'grand mal' seizures (1st and 2nd electroshock); assay type: in vivo, lapin; settings: for % d'animaux protégés complètement: one hour before second electroshock, groups of ten rabbits
Source text: as §1
Ne considérant comme significative, que la protection complète, les traitements pratiqués une heure avant le second électrochoc ont conféré les protection suivantes (sur groupes de dix lapins) :
Si, par ailleurs, on considère la protection contre les crises toniques (hyperextension des pattes postérieures), il apparaît également une synergie particulièrement aux doses associées de 200 mg/kg de produits.

With NC(=O)NC(=O)Cc1ccccc1 [Phénacétamide] the “Elévation du seuil myoclonique” value ([1]; 25 mg/kg) was 32,4, the “Elévation du seuil myoclonique” value ([1]; 50 mg/kg) was 43,1 and the “Elévation du seuil myoclonique” value ([1]; 100 mg/kg) was 58,2. The “Pourcentage de souris protégées une heure après traitement” value (crises psychomotrices; 10 mg/kg voie digestive) was 40%, the “Pourcentage de souris protégées une heure après traitement” value (crises psychomotrices; 25 mg/kg voie digestive) was 70% and the “Pourcentage de souris protégées une heure après traitement” value (crises psychomotrices; 50 mg/kg voie digestive) was 85%. The “Pourcentage de souris protégées une heure après traitement” value (crises psychomotrices; 100 mg/kg voie digestive) was 100% and the ED50 (crises psychomotrices; souris, voie digestive) was roughly 14 mg/kg.

For CCOC(=O)N(C(N)=O)c1ccccc1 [SCS 35, phényl-2 allophanate d'éthyle], the “% de protection vis-à-vis de la létalité pentétrazolique” value (crises pentétrazoliques; 10 mg/kg) was 0%, the “% de protection vis-à-vis de la létalité pentétrazolique” value (crises pentétrazoliques; 20 mg/kg) was 10% and the “% de protection vis-à-vis de la létalité pentétrazolique” value (crises pentétrazoliques; 50 mg/kg) was 50%. For the same compound, the ED50 (crises pentétrazoliques; Mus musculus, sc, 24 h, souris, read-out: DE50 à l'égard des crises pentétrazoliques maximales et létales) was 55 mg/kg, the “% d'animaux protégés complètement” value ([2]; 100 mg/kg) was “Nul” and the “% d'animaux protégés contre les seules crises toniques” value ([2]; 100 mg/kg, hyperextension tonique des pattes postérieures) was 60%. The “% d'animaux protégés contre les seules crises toniques” value ([2]; 200 mg/kg) was 80%, the “% d'animaux protégés complètement” value ([2]; 200 mg/kg) was 10% and the “Pourcentage de souris protégées une heure après traitement” value (crises psychomotrices; 5 mg/kg voie digestive) was 60%. For the same compound, the “Pourcentage de souris protégées une heure après traitement” value (crises psychomotrices; 10 mg/kg voie digestive) was 90%, the “Pourcentage de souris protégées une heure après traitement” value (crises psychomotrices; 2,5 mg/kg voie digestive) was 40% and the ED50 (crises psychomotrices; souris, voie digestive) was 3.5 mg/kg. For the same compound, the “DE50 capable de protéger 50 % des animaux contre les crises psychomotrices” value (crises psychomotrices; souris, voie digestive) was 3,5 mg/kg.

With CCCC(CCC)C(=O)O [Valproate de sodium] the “Elévation du seuil myoclonique” value ([1]; 100 mg/kg) was 54,7, the “Elévation du seuil myoclonique” value ([1]; 500 mg/kg) was 65,5 and the “protection contre les crises électriques maximales” value ([2]; 500 mg/kg, same experimental conditions) was “absolument inefficace; also recorded: inactif”. The “Pourcentage de souris protégées une heure après traitement” value (crises psychomotrices; 50 mg/kg voie digestive) was 15%, the “Pourcentage de souris protégées une heure après traitement” value (crises psychomotrices; 100 mg/kg voie digestive) was 40% and the “Pourcentage de souris protégées une heure après traitement” value (crises psychomotrices; 250 mg/kg voie digestive) was 85%. The ED50 (crises psychomotrices; souris, voie digestive) was roughly 120 mg/kg, the “DL50/DE50 / Crises psycho-motrices” value (crises psychomotrices; index thérapeutique absolu, souris) was 15 and the “DE50 psychodépressive / DE50 anticonvulsivante / Crises psycho-motrices” value (crises psychomotrices; index thérapeutique relatif, psychodépressive = mean of DE50 for agilité, force musculaire, motricité, curiosité) was 7.
